These are literature values, as cited in patent US20050261335A1, “Carvedilol formulations” (priority 2002, published 2005).

A word on the solubility: it is how much of the substance goes into solution per volume.

Like-named read-outs stand apart in the source and are kept apart here.

For the compound `COc1ccccc1OCCNCC(O)COc1cccc2[nH]c3ccccc3c12` (racemic) [Carvedilol], the solubility (above pH 9.0) was under 1 µg/mL. Moreover, the saturation solubility runs as follows: (pH 5, room temperature) about 100 µg/mL; (pH 7, room temperature) about 23 µg/mL.
